The test system of data set [1] is vasodilatation response during twitch contraction of skeletal muscle. As to the kind of experiment: Anaesthetised cat exercise hyperaemia test. In kind it is in vivo. Conditions: Felis catus, iv, 20 min, hind limb contraction at 3 Hz for 20 minutes, read-out: dose producing significant inhibition of vasodilatation during exercise. Here is the method:
(f) Anaesthetised cat exercise hyperaemia test
This test involves assessment of the effect of a test compound to antagonise the vasodilatation response which occurs during twitch contraction of skeletal muscle. The vasodilation is mediated partly by the release of endogenous adenosine from the contracting skeletal muscle.
Cats (2.4-3.6 kg) are anaesthetised with sodium pentobarbitone (50 mg.kg^-1 ip). The following blood vessels are catheterized: left jugular vein (for infusion of anaesthetic, at approximately […] as a 6 mg.ml^-1 solution in isotonic saline), right external jugular vein (for administration of drugs and test compounds), right common carotid artery (for measurement of systemic arterial blood pressure and pulse rate) and right brachial artery (for withdrawal of blood).
Blood flow to the left hind limb is measured with an electromagnetic flow probe around the left external iliac artery. The whole of the left hind limb is made to contract at 3 Hz for 20 minutes duration by stimulating the sciatic and femoral nerves. Active tension produced by the extensor digitorum longus and peroneous longus muscles is measured isometrically with a force transducer. […] Test compounds are assessed for their ability to reduce the vasodilatation during skeletal muscle contraction. […]

Another data set concerns the target T1, A2 Adenosine receptor (Rattus norvegicus, UniProt P30543).
T1 construct: membrane preparations derived from the rat phaeochromocytoma cell line PC 12; endogenous in cells; host or cells: PC 12 (rat phaeochromocytoma; cell line available from the Beatson Institute, Glasgow)
Description: A2 Adenosine receptor affinity test ([3H]-NECA displacement, PC12 membranes). Format: binding. Here is the method: The separated cells are then suspended in hypotonic solution (distilled water), allowed to stand on ice for 30 minutes and are then carefully homogenized using a standard high-speed homogeniser with periodic ice-cooling to obtain a fine suspension. […] A1280). […] After 20 minutes, the reaction is terminated by dilution with ice-cold buffer and transfer onto ice. The material obtained containing the cell membranes is recovered by centrifugation and washed by resuspension in buffer and recentrifugation. The pellet produced is then resuspended in ice-cold buffer using a hand-driven homogenizer. The resultant membrane suspension is frozen and stored under liquid nitrogen until required. […] After incubation, the samples are rapidly filtered over glass-fibre mats and the filter mats are washed to remove non-receptor-bound radioligand. Receptor-bound radioligand entrapped on the filter mats is then determined by liquid scintillation counting. Filtration and washing are carried out using a conventional vacuum filtration cell harvester. The specific binding (defined as the difference between the total binding and the non-specific binding) in the presence of the particular test compound is determined and compared with the control value.

The target in data set [2] is T2, adenosine receptor known as A2.
T2 construct: guinea pig thoracic aorta (from Dunkin Hartley strain, 250-400 g males); from tissue; host or cells: thoracic aortic rings, Dunkin Hartley guinea pig
T2 sequence (P29275 whole entry): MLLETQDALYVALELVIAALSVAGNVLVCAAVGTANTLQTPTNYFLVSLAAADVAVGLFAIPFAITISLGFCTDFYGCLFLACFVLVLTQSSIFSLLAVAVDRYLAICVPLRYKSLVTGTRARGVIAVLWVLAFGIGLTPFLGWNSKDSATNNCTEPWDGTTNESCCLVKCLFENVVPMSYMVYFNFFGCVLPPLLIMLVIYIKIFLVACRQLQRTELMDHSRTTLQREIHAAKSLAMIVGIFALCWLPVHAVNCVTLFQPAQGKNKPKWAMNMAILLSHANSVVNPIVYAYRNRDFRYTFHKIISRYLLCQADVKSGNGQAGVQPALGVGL
Description: Guinea-pig Aortic Constriction Test. The conditions noted are these: antagonism of adenosine relaxation of phenylephrine constricted guinea-pig aortic ring; read-out: pA2 (converted).
Description: (b) Guinea-pig Aortic Constriction Test
The aortic ring preparation is obtained as follows: Sections (3-5 mm) of guinea pig thoracic aorta (from Dunkin Hartley strain, 250-400 g males) are mounted in organ baths containing oxygenated Krebs solution (95% O2 : 5% CO2) at 37° C. [The nucleoside transport inhibitor, dipyridamole (10 μM) is present in the Krebs solution]. The isometric tension development is recorded and the tissue placed under a resting tension of 1 g and allowed to equilibrate for 1 hour. The aortic ring preparation is then sensitised to 10^-5 M phenylephrine. Erythro-9-(2-hydroxy-3-nonyl)adenine (EHNA) (10 μM) is added to the preparation and after 10 minutes the tissue is constricted to approximately 50% maximum by adding 3×10^-6 M phenylephrine. Adenosine is next added cumulatively (10^-7 M to 10^-3 M) and the evoked relaxation is measured. After washout for 20 minutes, a 10^5 M solution of the test compound in DMSO (maximum 1% by volume) diluted with Krebs solution is added and left to equilibrate for 30 minutes. Twenty minutes into the equilibration period further EHNA (10 μM) is added to the preparation and 10 minutes later phenylephrine (3×10^-6 M) is introduced to produce constrictive tone again. A repeat dose response curve to adenosine is then carried out followed by washout.
Significant antagonist activity in this assay is indicated by a DR of >2.

Data set [3] concerns the target T3, adenosine receptor known as A1 (Cavia porcellus, UniProt P47745).
T3 construct: Atrial pairs are obtained from guinea-pigs (Dunkin Hartley strain, 250-400 g males); from tissue; host or cells: spontaneously beating atrial pairs, Dunkin Hartley guinea pig
T3 sequence (P47745 1-326): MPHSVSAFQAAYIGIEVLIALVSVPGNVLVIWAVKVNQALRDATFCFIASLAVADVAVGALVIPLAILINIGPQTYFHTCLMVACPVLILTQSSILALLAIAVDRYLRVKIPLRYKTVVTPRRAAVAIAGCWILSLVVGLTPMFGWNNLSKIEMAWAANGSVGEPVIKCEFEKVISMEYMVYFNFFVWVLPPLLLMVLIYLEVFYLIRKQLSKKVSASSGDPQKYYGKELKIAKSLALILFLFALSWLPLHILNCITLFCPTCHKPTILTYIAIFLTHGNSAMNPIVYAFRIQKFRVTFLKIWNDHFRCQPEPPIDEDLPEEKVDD
As to the kind of experiment: Guinea-pig Atrial Bradycardic Test. The conditions noted are these: antagonism of bradycardic effect of 2-chloroadenosine, beating guinea-pig atrial pair; read-out: pA2 (converted). As to the method: (c) Guinea-pig Atrial Bradycardic Test
The atrial pair preparation may be obtained as follows: Atrial pairs are obtained from guinea-pigs (Dunkin Hartley strain, 250-400 g males) and mounted in organ baths containing oxygenated Krebs buffer solution (95% O2; 5% CO2) at 37° C. The spontaneously beating atria are then placed under a resting tension of 1 g and allowed to equilibrate for 50 minutes with continuous overflow. Overflow is then stopped and adenosine deaminase (1 Unit/ml) added to prevent the accumulation of endogenously produced adenosine. After equilibration for 15 minutes, a cumulative dose response curve to the adenosine mimetic, 2-chloroadenosine(10^-8 M to 10^-4 M) is administered to produce a maximal slowing of atrial rate. After washout during 30 minutes, adenosine deaminase is readministered to the bath which is allowed to equilibrate for 15 minutes. A 10^-5 M solution of the test compound in DMSO is then added to the bath which is left to incubate for 30 minutes. Any effect on the beating rate due to the test compound is noted before the dose response curve to 2-chloroadenosine is repeated. Compounds which are adenosine antagonists attenuate the 2-chloroadenosine response.
Test compounds are assessed by comparing dose response curves to 2-chloroadenosine alone with those obtained in the presence of the compound. […]

The subject of data set [4] is fall in diastolic blood pressure produced by 2-chloroadenosine. Description: Anaesthetised cat blood pressure Test. Format: in vivo. Conditions: i.v., Schild plot, 2-chloroadenosine 30 mm Hg fall in diastolic blood pressure. As to the method: (d) Anaesthetised cat blood pressure Test This test assesses the ability of a test compound to antagonise the fall in diastolic blood pressure produced by administration of the adenosine mimetic, 2-chloroadenosine. […] The blood gas status and pH are determined, and are maintained within physiological limits, before administration of 2-chloroadenosine. […] A solution of the test compound in a mixture of 50% v/v polyethylene glycol (PEG) 400 and 0.1M sodium hydroxide is then administered i.v. and after 15 minutes the DRC to 2-chloroadenosine is determined. This procedure is repeated twice with blood gases and pH being monitored and maintained within physiological limits between each DRC. […] From this plot a KB value is determined.

Data set [5] relates to actions of adenosine in lowering heart rate and increasing vasodilation (hind-limb perfusion pressure). As to the kind of experiment: Anaesthetised dog Test. Format: in vivo. Conditions: Schild plot, antagonism of vasodilator response to adenosine. As to the method:
(e) Anaesthetised dog Test
This test involves the assessment of the effects of a test compound on antagonising the actions of adenosine in lowering heart rate and increasing vasodilation (as measured by a fall in hind-limb perfusion pressure).
Beagles (12-18 kg) are anaesthetised with sodium pentobarbitone (50 mg/kg, iv). […] Both vagi, the right femoral and sciatic nerves are ligated and severed. […] The right leg is tied just below the ankle. Xamoterol (1 mg/kg) is then administered to the animal to stabilise heart rate at a high level and nitrobenzylthioinosine (NBTI, 0.5 mg/kg) to inhibit the uptake of adenosine. The animal is sensitised to adenosine during the equilibration time following NBTI by carrying out a dose response curve (DRC). During this time any blood gas or pH imbalance is corrected. A control DRC is performed followed-d by up to three DRC's after cumulative administration of the test compound (as described in (d) above). […] Similarly, blood gases and pH are maintained within physiological limits throughout the evaluation.
From this plot a KB value is determined for antagonism of heart rate response and vasodilator response to adenosine.

The test system of data set [6] is adenosine induced decrease in blood pressure. Description: Conscious cat oral modification of Test (d). Format: in vivo. The conditions noted are these: conscious cats, at several times the minimum effective dose. The text has this: The above Test (d) may conveniently be modified to allow evaluation of orally administered test compounds by administering the test compound to conscious cats with indwelling arterial and venous catheters and measuring the effect in preventing an adenosine induced decrease in blood pressure.

Read-outs that look alike come from different tables or passages of the source.

T1 sequence (P30543 whole entry): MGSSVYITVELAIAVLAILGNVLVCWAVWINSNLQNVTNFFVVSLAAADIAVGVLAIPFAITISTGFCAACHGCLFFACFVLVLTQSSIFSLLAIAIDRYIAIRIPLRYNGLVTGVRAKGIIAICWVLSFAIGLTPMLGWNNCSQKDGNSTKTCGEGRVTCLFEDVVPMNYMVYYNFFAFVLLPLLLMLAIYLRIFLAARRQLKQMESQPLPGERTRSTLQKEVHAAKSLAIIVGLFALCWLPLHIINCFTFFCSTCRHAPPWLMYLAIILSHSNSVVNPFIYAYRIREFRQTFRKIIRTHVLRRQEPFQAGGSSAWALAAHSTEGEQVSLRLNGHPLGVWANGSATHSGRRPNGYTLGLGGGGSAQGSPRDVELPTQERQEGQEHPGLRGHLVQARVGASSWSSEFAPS

Consider `Cn1c(=O)c2[nH]cnc2n(C)c1=O` [1,3-dimethylxanthine, reference compound], for which, in data set [1], the minimal effective dose is 10 mg/kg.
A word on the IC50: it is the midpoint of a concentration-inhibition curve. A higher IC50 goes with a need for much substance. At A2 Adenosine receptor (displacement of [3H]-NECA, rat PC 12 cell membranes, 30° C., 90 minutes), `Nc1nc(Oc2ccccc2)nc2cc(-c3ccco3)nn12` [Example 119, 7-amino-2-(2-furyl)-5-phenoxy-pyrazolo[2,3-a][1,3,5]triazine] gave a concentration for half-maximal inhibition (IC50) of about 3.16 nM. The Kb in data set [2] was 50.1 nM; in data set [3] it was 1000 nM. The results for the KB in data set [4] and in data set [5] were 0.7 mg/kg and 1.1 mg/kg, respectively.
As for `Nc1nc(Oc2ccccc2)nc2nc(-c3ccco3)nn12` [Example 1, 7-amino-2-(2-furyl)-5-phenoxy-[1,2,4]triazolo[1,5-a][1,3,5]triazine], the IC50 on A2 Adenosine receptor was about 10 nM. For the same molecule, the Kb in data set [2] is 39.8 nM; in data set [3], 631 nM. The KB in data set [4] and in data set [5] was 0.03 mg/kg throughout. Moreover, in data set [6], the “sign of overt toxicity” value is “without any sign of overt toxicity”. Also, the minimal effective dose in data set [1] was 0.1 to 1 mg/kg.
